Experimental data: US8148391B2 (Cephalon, Inc., priority 2006, dated 2012)
Where two headings read alike, the source gives them in different places. Blank lines part the entries; values can stand above or below the compound they belong to.

Tests used:
[1] = target: T1, c-Met (cytoplasmic domain) (Homo sapiens, UniProt P08581); test: c-Met Kinase Assay (same methods as for ALK, with modifications); type: biochemical
T1 construct: 10 ng/mL c-Met (cytoplasmic domain, Invitrogen Corporation #PV3143); purchased Invitrogen Corporation PV3143
In short: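 IC50 values were fitted by variable-slope sigmoidal regression of percent inhibition against log compound concentration. Phosphorylation was read with Eu-N1 PT66 antibody after a 15 min, 37 °C reaction. The reaction was initiated with 10 ng/mL c-Met cytoplasmic domain on wells coated with 10 μg/mL PLC-γ in TBS.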

[2] = target: T2, baculovirus-expressed ALK (Homo sapiens, UniProt Q9UM73); test: ALK Kinase Assay (ELISA-type, time-resolved fluorescence); type: biochemical
T2 construct: host or cells: baculovirus expression system
In short: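 Wells were coated with phospholipase C-γ at 10 μg/mL in Tris-buffered saline. Adding 30 ng/ml enzyme started the reaction, which ran at 37° C for 15 minutes before Eu-N1 PT66 antibody detection. Percent inhibition versus log10 concentration gave IC50 by variable-slope fit.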

[3] = 1 μM ATP (Km level), read-out: cMet Activity (c-Met Kinase Inhibition, IC50)
[4] = 1 μM ATP (Km level), read-out: ALK Activity (ALK Kinase Inhibition, IC50)
[5] = 1 μM ATP (Km level), 10 ng/mL c-Met, read-out: cMet Activity (c-Met kinase inhibition, IC50 class)
[6] = 1 μM ATP (Km level), 30 ng/ml ALK, 37° C., 15 minutes, read-out: ALK Activity (ALK kinase inhibition, IC50 class)
[7] = c-Met kinase inhibition, 1 μM ATP (Km level), read-out: cMet Activity
[8] = ALK kinase inhibition, 1 μM ATP (Km level), read-out: ALK Activity
[9] = c-Met kinase inhibition, 1 μM ATP, read-out: cMet Activity
[10] = ALK kinase inhibition, 1 μM ATP, read-out: ALK Activity

T1 sequence (P08581 956-1390 limits assumed): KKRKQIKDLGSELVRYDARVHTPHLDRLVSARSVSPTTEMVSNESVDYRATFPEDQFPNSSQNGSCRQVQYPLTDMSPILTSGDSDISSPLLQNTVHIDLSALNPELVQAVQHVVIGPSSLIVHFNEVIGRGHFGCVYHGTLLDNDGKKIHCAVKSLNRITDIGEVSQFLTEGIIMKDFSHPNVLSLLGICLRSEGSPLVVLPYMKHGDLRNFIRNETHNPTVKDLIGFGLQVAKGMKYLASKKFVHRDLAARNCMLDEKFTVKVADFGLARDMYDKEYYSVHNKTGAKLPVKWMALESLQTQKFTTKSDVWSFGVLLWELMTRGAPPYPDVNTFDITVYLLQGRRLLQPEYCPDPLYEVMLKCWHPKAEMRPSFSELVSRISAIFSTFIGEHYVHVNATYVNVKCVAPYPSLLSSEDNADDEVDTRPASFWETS
T2 sequence (Q9UM73 19-1620): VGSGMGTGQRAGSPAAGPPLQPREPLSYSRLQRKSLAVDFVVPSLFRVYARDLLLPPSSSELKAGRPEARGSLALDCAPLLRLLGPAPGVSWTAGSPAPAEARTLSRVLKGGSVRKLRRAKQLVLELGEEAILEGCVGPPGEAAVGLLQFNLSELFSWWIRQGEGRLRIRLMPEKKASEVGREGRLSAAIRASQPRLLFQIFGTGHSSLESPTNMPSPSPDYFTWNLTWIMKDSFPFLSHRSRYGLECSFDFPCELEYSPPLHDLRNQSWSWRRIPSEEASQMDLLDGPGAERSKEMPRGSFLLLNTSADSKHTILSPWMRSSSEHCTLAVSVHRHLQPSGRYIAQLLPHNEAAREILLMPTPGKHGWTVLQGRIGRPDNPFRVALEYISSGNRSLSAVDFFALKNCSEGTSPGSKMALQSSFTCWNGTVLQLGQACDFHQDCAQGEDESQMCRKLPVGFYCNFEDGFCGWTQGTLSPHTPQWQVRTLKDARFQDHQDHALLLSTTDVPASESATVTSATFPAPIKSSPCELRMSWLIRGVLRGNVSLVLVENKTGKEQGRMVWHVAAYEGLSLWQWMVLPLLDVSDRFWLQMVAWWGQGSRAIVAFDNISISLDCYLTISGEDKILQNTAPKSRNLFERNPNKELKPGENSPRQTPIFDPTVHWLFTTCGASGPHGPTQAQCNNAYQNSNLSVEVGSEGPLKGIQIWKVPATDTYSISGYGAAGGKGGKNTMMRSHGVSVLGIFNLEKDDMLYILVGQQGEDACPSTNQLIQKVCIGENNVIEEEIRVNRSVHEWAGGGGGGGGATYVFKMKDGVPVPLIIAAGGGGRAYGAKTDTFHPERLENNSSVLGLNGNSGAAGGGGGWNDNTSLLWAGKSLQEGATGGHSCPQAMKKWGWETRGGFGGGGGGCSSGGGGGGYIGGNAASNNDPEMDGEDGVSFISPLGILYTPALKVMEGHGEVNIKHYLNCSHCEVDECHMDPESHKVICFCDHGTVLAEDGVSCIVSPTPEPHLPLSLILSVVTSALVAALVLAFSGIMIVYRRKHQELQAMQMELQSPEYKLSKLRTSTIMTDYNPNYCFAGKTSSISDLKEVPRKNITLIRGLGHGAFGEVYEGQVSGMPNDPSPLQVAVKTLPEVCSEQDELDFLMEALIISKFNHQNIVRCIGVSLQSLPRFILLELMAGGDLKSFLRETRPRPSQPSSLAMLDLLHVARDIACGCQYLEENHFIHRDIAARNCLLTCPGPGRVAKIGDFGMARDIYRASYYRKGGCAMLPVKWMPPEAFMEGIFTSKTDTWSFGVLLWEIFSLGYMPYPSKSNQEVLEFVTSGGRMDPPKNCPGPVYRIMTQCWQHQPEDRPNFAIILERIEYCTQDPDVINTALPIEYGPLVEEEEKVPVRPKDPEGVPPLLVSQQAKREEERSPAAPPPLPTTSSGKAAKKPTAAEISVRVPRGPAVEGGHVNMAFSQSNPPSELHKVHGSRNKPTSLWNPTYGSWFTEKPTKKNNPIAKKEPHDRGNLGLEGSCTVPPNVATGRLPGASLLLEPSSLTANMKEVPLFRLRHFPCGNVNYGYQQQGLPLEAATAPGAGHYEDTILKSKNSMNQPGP

SMILES: CNC(=O)c1cccc(F)c1Nc1nc(Nc2ccc3c(c2)N(C(C)=O)CC(=O)NC3)ncc1Cl [Example 1877, 2-[2-(1-Acetyl-3-oxo-2,3,4,5-tetrahydro-1H-benzo[e][1,4]diazepin-8-ylamino)-5-chloro-pyrimidin-4-ylamino]-3-fluoro-N-methyl-benzamide]
- IC50 [1, 7]: < 100 nM
- IC50 [2, 8]: < 100 nM

SMILES: CS(=O)(=O)Nc1ccccc1Nc1nc(Nc2ccc3c(c2)CNCCS3)ncc1Cl [Example 518]
- IC50 [1, 3]: 1000 to 10000 nM
- IC50 [2, 4]: < 100 nM

SMILES: CCN1C(=O)CCCc2c1ccc(Nc1ncc(Cl)c(N[C@@H]3[C@@H]4C[C@@H]([C@@H](O)[C@H]4O)[C@@H]3C(N)=O)n1)c2OC [Example 1699, (1R,2S,3R,4S,5S,6R)-3-[5-Chloro-2-(1-ethyl-6-methoxy-2-oxo-2,3,4,5-tetrahydro-1H-benzo[b]azepin-7-ylamino)-pyrimidin-4-ylamino]-5,6-dihydroxy-bicyclo[2.2.1]heptane-2-carboxylic acid amide]
- IC50 [1, 9]: > 10000 nM
- IC50 [2, 10]: 100 to 1000 nM

SMILES: CN1C(=O)OCCc2cc(Nc3ncc(Cl)c(Oc4c(F)cccc4OC4CCOC4)n3)ccc21 (centres unmarked) [Example 1307, 2-{5-Chloro-4-[2-fluoro-6-(tetrahydro-furan-3-yloxy)-phenoxy]-pyrimidin-2-ylamino}-5-methyl-8,9-dihydro-5H-7-oxa-5-aza-benzocyclohepten-6-one]
- IC50 [1, 5]: 1000 to 10000 nM
- IC50 [2, 6]: 100 to 1000 nM

SMILES: CCN1CCN(CC)c2cc(Nc3ncc(Cl)c(Nc4ccccc4C(=O)NC)n3)ccc2C1 [Example 419, 2-[5-Chloro-2-(1,4-diethyl-2,3,4,5-tetrahydro-1H-benzo[e][1,4]diazepin-8-ylamino)-pyrimidin-4-ylamino]-N-methylbenzamide]
- IC50 [1, 7]: < 100 nM
- IC50 [2, 8]: < 100 nM

SMILES: CNC(=O)c1cccc(F)c1Nc1nc(Nc2ccc3c(c2)N(C(C)=O)CCCC3)ncc1Cl [Example 1489, 2-[2-(1-Acetyl-2,3,4,5-tetrahydro-1H-benzo[b]azepin-8-ylamino)-5-chloro-pyrimidin-4-ylamino]-3-fluoro-N-methyl-benzamide]
- IC50 [1, 9]: < 100 nM
- IC50 [2, 10]: 100 to 1000 nM

SMILES: COc1ccc2c(c1Nc1ncc(Cl)c(Nc3ccccc3-c3nccn3C)n1)NC(=O)CCC2(C)C [Example 998, 9-{5-Chloro-4-[2-(1-methyl-1H-imidazol-2-yl)-phenylamino]-pyrimidin-2-ylamino}-8-methoxy-5,5-dimethyl-1,3,4,5-tetrahydro-benzo[b]azepin-2-one]
- IC50 [1, 3]: > 10000 nM
- IC50 [2, 4]: > 10000 nM

SMILES: Cn1ccnc1-c1ccccc1Nc1nc(Nc2cccc3c2OCCCC3(C)C)ncc1Cl [Example 879, 5-Chloro-N*2*-(5,5-dimethyl-2,3,4,5-tetrahydro-benzo[b]oxepin-9-yl)-N*4*-[2-(1-methyl-1H-imidazol-2-yl)-phenyl]-pyrimidine-2,4-diamine]
- IC50 [1, 3]: > 10000 nM
- IC50 [2, 4]: 100 to 1000 nM

Other lines, results leading:

- IC50 [1, 3]: > 10000 nM
- IC50 [2, 4]: < 100 nM
SMILES: COc1cc(N2CCOCC2)ccc1Nc1nc(Nc2ccc3c(c2OC)CCCC(N2CCOCC2)C3)ncc1Cl (centres unmarked) [Example 952, 5-Chloro-N(4)-(2-methoxy-4-morpholin-4-yl-phenyl)-N(2)-(1-methoxy-6-morpholin-4-yl-6,7,8,9-tetrahydro-5H-benzocyclohepten-2-yl)-pyrimidine-2,4-diamine]

- IC50 [1, 5]: > 10000 nM
- IC50 [2, 6]: < 100 nM
SMILES: COc1cc2c(cc1Nc1ncc(Cl)c(Nc3ccc(N4CCOCC4)cc3OC)n1)CCN(CC(=O)N1CCCC1)CC2 [Example 1155, 2-{7-[5-Chloro-4-(2-methoxy-4-morpholin-4-yl-phenylamino)-pyrimidin-2-ylamino]-8-methoxy-1,2,4,5-tetrahydro-benzo[d]azepin-3-yl}-1-pyrrolidin-1-yl-ethanone]

- IC50 [1, 5]: > 10000 nM
- IC50 [2, 6]: < 100 nM
SMILES: CCN1C(=O)CCC(C)(C)c2cc(Nc3ncc(Cl)c(N[C@H]4[C@@H](C(N)=O)[C@@H]5C=C[C@H]4C5)n3)c(OC)cc21 [Example 1314, (1S,2S,3R,4R)-3-[5-Chloro-2-(1-ethyl-8-methoxy-5,5-dimethyl-2-oxo-2,3,4,5-tetrahydro-1H-benzo[b]azepin-7-ylamino)-pyrimidin-4-ylamino]-bicyclo[2.2.1]hept-5-ene-2-carboxylic acid amide]

- IC50 [1, 5]: 100 to 1000 nM
- IC50 [2, 6]: 100 to 1000 nM
SMILES: CNC(=O)c1cc(F)cc(F)c1Nc1nc(Nc2ccc3c(c2)CCN(CCOC)CC3)ncc1Cl [Example 1277, 2-{5-Chloro-2-[3-(2-methoxy-ethyl)-2,3,4,5-tetrahydro-1H-3-benzazepin-7-ylamino]-pyrimidin-4-ylamino}-3,5-difluoro-N-methyl-benzamide]

- IC50 [1, 3]: > 10000 nM
- IC50 [2, 4]: < 100 nM
SMILES: COc1cc2c(cc1Nc1ncc(Cl)c(Nc3ccc(F)cc3S(=O)(=O)N(C)C)n1)CCN(CC(=O)N(C)C)CC2 [Example 831, 2-{7-[5-Chloro-4-(2-dimethylsulfamoyl-4-fluoro-phenylamino)-pyrimidin-2-ylamino]-8-methoxy-1,2,4,5-tetrahydro-benzo[d]azepin-3-yl}-N,N-dimethyl-acetamide]

- IC50 [1, 5]: > 10000 nM
- IC50 [2, 6]: < 100 nM
SMILES: COc1cc2c(cc1Nc1ncc(Cl)c(N[C@@H]3CCCC[C@H]3NS(C)(=O)=O)n1)CCC(NCCO)CC2 (single isomer, unassigned) [Example 1094]

- IC50 [1, 3]: 1000 to 10000 nM
- IC50 [2, 4]: < 100 nM
SMILES: CCN1C(=O)CCC(C)(C)c2ccc(Nc3ncc(Cl)c(Nc4ccc(N5CCOCC5)cc4S(=O)(=O)N(C)C)n3)cc21 [Example 851, 2-[5-Chloro-2-(1-ethyl-5,5-dimethyl-2-oxo-2,3,4,5-tetrahydro-1H-benzo[b]azepin-8-ylamino)-pyrimidin-4-ylamino]-N,N-dimethyl-5-morpholin-4-yl-benzenesulfonamide]

- IC50 [1, 7]: > 10000 nM
- IC50 [2, 8]: < 100 nM
SMILES: CCN1CCc2cc(Nc3ncc(Cl)c(N[C@@H]4CCCC[C@H]4NS(C)(=O)=O)n3)c(OC)cc2CC1=O [Example 251, N-{(1R,2R)-2-[5-Chloro-2-(3-ethyl-8-methoxy-2-oxo-2,3,4,5-tetrahydro-1H-benzo[d]azepin-7-ylamino)-pyrimidin-4-ylamino]-cyclohexyl}-methanesulfonamide]

- IC50 [1, 7]: 100 to 1000 nM
- IC50 [2, 8]: < 100 nM
SMILES: CN1CCCCc2cc(Nc3ncc(Cl)c(N[C@@H]4CCCC[C@H]4NS(C)(=O)=O)n3)ccc21 [Example 104, N-{(1R,2R)-2-[5-Chloro-2-(1-methyl-2,3,4,5-tetrahydro-1H-benzo[b]azepin-7-ylamino)-pyrimidin-4-ylamino]-cyclohexyl}-methanesulfonamide]

- IC50 [1, 3]: > 10000 nM
- IC50 [2, 4]: < 100 nM
SMILES: COc1cc2c(cc1Nc1ncc(F)c(Nc3ccc(N4CCN(C)CC4)cc3OC)n1)CCN(CCS(C)(=O)=O)CC2 [Example 805, 5-Fluoro-N*2*-[3-(2-methanesulfonyl-ethyl)-8-methoxy-2,3,4,5-tetrahydro-1H-benzo[d]azepin-7-yl]-N*4*-[2-methoxy-4-(4-methyl-piperazin-1-yl)-phenyl]-pyrimidine-2,4-diamine]

- IC50 [1, 3]: > 10000 nM
- IC50 [2, 4]: < 100 nM
SMILES: COc1cc2c(cc1Nc1ncc(Cl)c(N[C@H]3[C@@H](C(N)=O)[C@@H]4C=C[C@H]3C4)n1)CCN(CC(C)(F)F)CC2 [Example 782, (1S,2S,3R,4R)-3-{5-Chloro-2-[3-(2,2-difluoro-propyl)-8-methoxy-2,3,4,5-tetrahydro-1H-benzo[d]azepin-7-ylamino]-pyrimidin-4-ylamino}-bicyclo[2.2.1]hept-5-ene-2-carboxylic acid amide]
